Data: patent US6472348B1, “Pyridone derivatives and herbicides” (Kumiai Chemical Industry Co., Ltd., priority 1996, dated 2002)

Legend:
Format in all cases: in vivo
Diaitaria ciliaris (Di) = test: Test Example 3: herbicidal effects by upland field foliage treatment; parameters: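 grade of growth control; 5 = at least 90%; 4 = 70 to 90%; 3 = 50 to 70%; 2 = 30 to 50%; 1 = 10 to 30%; 0 = under 10%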; settings: 100 g of the active ingredient per 10 ares, evaluated on the 14th day after treatment
Description: (§1) (Test on Herbicidal Effects by Upland Field Foliage Treatment)
(§2) In a plastic pot (surface area: 120 cm^2) filled with sand, barnyardgrass (Ec), Diaitaria ciliaris (Di), pale smartweed (Po), slender amaranth (Am), common lambsquarters (Ch) and rice flatsedge (Ci) were sown and covered with soil and were cultured in a green house for 2 weeks. […] The plants were then cultured in the green house, and the evaluation of the herbicidal effects was conducted on the 14th day after the treatment in accordance with the standards as identified in Table 47. Symbol—represents “not tested”.

barnyardgrass (Ec) [1] = test: as above; parameters: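 grade of growth control; 5 = at least 90%; 4 = 70 to 90%; 3 = 50 to 70%; 2 = 30 to 50%; 1 = 10 to 30%; 0 = under 10%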; settings: 100 g of the active ingredient per 10 ares, evaluated on the 14th day after treatment
Description: as §1, §2

pale smartweed (Po) = test: as above; parameters: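 grade of growth control; 5 = at least 90%; 4 = 70 to 90%; 3 = 50 to 70%; 2 = 30 to 50%; 1 = 10 to 30%; 0 = under 10%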; settings: 100 g of the active ingredient per 10 ares, evaluated on the 14th day after treatment
Description: as §1, §2

slender amaranth (Am) = test: as above; parameters: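 grade of growth control; 5 = at least 90%; 4 = 70 to 90%; 3 = 50 to 70%; 2 = 30 to 50%; 1 = 10 to 30%; 0 = under 10%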; settings: 100 g of the active ingredient per 10 ares, evaluated on the 14th day after treatment
Description: as §1, §2

rice flatsedge (Ci) = test: as above; parameters: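 grade of growth control; 5 = at least 90%; 4 = 70 to 90%; 3 = 50 to 70%; 2 = 30 to 50%; 1 = 10 to 30%; 0 = under 10%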; settings: 100 g of the active ingredient per 10 ares, evaluated on the 14th day after treatment
Description: as §1, §2

[2] = tested on: common lambsquarters (Ch); test: as above; parameters: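 grade of growth control; 5 = at least 90%; 4 = 70 to 90%; 3 = 50 to 70%; 2 = 30 to 50%; 1 = 10 to 30%; 0 = under 10%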; settings: 100 g of the active ingredient per 10 ares, evaluated on the 14th day after treatment
Description: as §1, §2

barnyardgrass (Ec) [3] = test: Test Example 1: herbicidal effects by paddy field soil treatment; settings: 100 g of the active ingredient per 10 ares, 21st day after the application, index 0-5 of Table 47;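 also: grade of growth control; 5 = at least 90%; 4 = 70 to 90%; 3 = 50 to 70%; 2 = 30 to 50%; 1 = 10 to 30%; 0 = under 10%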
Description: (§3) (Test on Herbicidal Effects by Paddy Field Soil Treatment)
(§4) In a plastic pot (surface area: 100 cm^2) filled with paddy field soil, barnyardgrass (Ec), monochoria (Mo) and bulrush (Sc) were sown after puddling and leveling, and flooded to a water depth of 3 cm. […] The dose was 100 g of the active ingredient per 10 ares. The plants were then cultured in a green house, and the evaluation of the herbicidal effects was conducted on the 21st day after the application in accordance with the standards as identified in Table 47.

monochoria (Mo) = test: as above; settings: 100 g of the active ingredient per 10 ares, 21st day after the application, index 0-5 of Table 47;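 also: grade of growth control; 5 = at least 90%; 4 = 70 to 90%; 3 = 50 to 70%; 2 = 30 to 50%; 1 = 10 to 30%; 0 = under 10%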
Description: as §3, §4

bulrush (Sc) = test: as above; settings: 100 g of the active ingredient per 10 ares, 21st day after the application, index 0-5 of Table 47;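 also: grade of growth control; 5 = at least 90%; 4 = 70 to 90%; 3 = 50 to 70%; 2 = 30 to 50%; 1 = 10 to 30%; 0 = under 10%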
Description: as §3, §4

| Structure (SMILES) | Herbicidal effects Di (Diaitaria ciliaris (Di)) | Herbicidal effects Ec (barnyardgrass (Ec) [1]) | Herbicidal effects Po (pale smartweed (Po)) | Herbicidal effects Am (slender amaranth (Am)) | Herbicidal effects Ci (rice flatsedge (Ci)) | Herbicidal effects Ch [2] | Herbicidal effects Ec (barnyardgrass (Ec) [3]) | Herbicidal effects Mo (monochoria (Mo)) | Herbicidal effects Sc (bulrush (Sc)) |
| --- | --- | --- | --- | --- | --- | --- | --- | --- | --- |
| CCCC(Sc1cc(-c2ccc(C(F)(F)F)n(C)c2=O)ccc1Cl)C(=O)OCC (racemic) [1-116] | 4 | 4 | 5 | 5 | 5 | 5 |  |  |  |
| Cn1c(C(F)(F)F)ccc(-c2cc(OCc3ccccc3)c(Cl)cc2F)c1=O [1-23] |  |  |  |  |  |  | 5 | 5 | 5 |
| Cn1c(C(F)(F)F)ccc(-c2cc(Oc3ccccc3)c(Cl)cc2Cl)c1=O [1-36] |  |  |  |  |  |  | 5 | 5 | 5 |
| Cn1c(C(F)(F)F)ccc(-c2cc(OC3CCCC3)c(Cl)cc2Cl)c1=O [1-40] |  |  |  |  |  |  | 5 | 5 | 5 |
| Cn1c(C(F)(F)F)ccc(-c2cc(SCC(=O)OC3CCCC3)c(Cl)cc2F)c1=O [1-47] |  |  |  |  |  |  | 5 | 5 | 5 |
| CCOC(=O)CSc1cc(-c2ccc(C(F)(F)F)n(C)c2=O)c(Cl)cc1Cl [1-53] |  |  |  |  |  |  | 5 | 5 | 5 |
| CCOC(=O)CNc1cc(-c2ccc(C(F)(F)F)n(C)c2=O)c(F)cc1Cl [1-63] | 5 | 5 | 5 | 5 | 5 | 5 |  |  |  |
| Cn1c(C(F)(F)F)ccc(-c2cc(NS(C)(=O)=O)c(Cl)cc2Cl)c1=O [1-75] |  |  |  |  |  |  | 5 | 5 | 5 |
| Cc1cc(-c2ccc(Cl)cc2Cl)c(=O)[nH]c1C(F)(F)F [1-97] |  |  |  |  |  |  | 5 | 5 | 5 |
| CCOC(=O)COc1cc(-c2ccc(C(F)(F)F)n(C)c2=O)ccc1Cl [1-107] |  |  |  |  |  |  | 5 | 5 | 5 |
| Cn1c(C(F)(F)F)ccc(-c2ccc(Cl)c(SCC(=O)OC3CCCC3)c2)c1=O [1-115] |  |  |  |  |  |  | 5 | 5 | 5 |
| Cn1c(C(F)(F)F)ccc(-c2cc(SC3CCCC3)c(Cl)cc2Cl)c1=O [1-128] |  |  |  |  |  |  | 5 | 5 | 4 |
| CC(C)OCCOC(=O)CSc1cc(-c2ccc(C(F)(F)F)n(C)c2=O)c(Cl)cc1Cl [1-129] | 5 | 5 | 5 | 5 | 5 | 5 |  |  |  |
| CCCOC(=O)CSc1cc(-c2ccc(C(F)(F)F)n(C)c2=O)c(Cl)cc1Cl [1-130] |  |  |  |  |  |  | 5 | 5 | 5 |
| Cn1c(C(F)(F)F)ccc(-c2cc(C(=O)NS(C)(=O)=O)c(Cl)cc2F)c1=O [1-147] |  |  |  |  |  |  | 5 | 5 | 5 |
| COC(=O)Oc1cc(-c2ccc(C(F)(F)F)n(C)c2=O)c(F)cc1Cl [1-153] |  |  |  |  |  |  | 5 | 5 | 5 |
| Cn1c(C(F)(F)F)ccc(-c2ccc3c(c2)NC(=O)CO3)c1=O [2-30] |  |  |  |  |  |  | 5 | 5 | 5 |
| Cn1c(C(F)(F)F)ccc(-c2cc(OC3CCCO3)c(Cl)cc2Cl)c1=O (stereo not drawn) [Compound 1-212] |  |  |  |  |  |  | 5 | 5 | 4 |
| Cn1c(C(F)(F)F)ccc(-c2cc3c(cc2F)OCC(=O)N3CC2CO2)c1=O (stereo not drawn) [Compound 2-20] |  |  |  |  |  |  | 5 | 5 | 5 |
| Cn1cc(-c2ccc(Cl)cc2)c(=O)cc1C(F)(F)F [Compound 6-1] |  |  |  |  |  |  | 5 | 5 | 5 |
| CCOC(=O)C(Cl)Cc1cc(-c2ccc(C(F)(F)F)n(C)c2=O)c(F)cc1Cl (stereo not drawn) [Compound No. 1-139, ethyl 2-chloro-3-[2-chloro-4-fluoro-5-(1methyl-6-trifluoromethyl-2(1H)pyridon-3-yl)]phenyl propionate] | 5 | 5 | 5 | 5 | 5 | 5 |  |  |  |
